Source: patent publication US12479820B2, “Pyridin-3-yl derivatives” (Idorsia Pharmaceuticals Ltd, priority 2019, dated 2025)

These molecules were tested against T1, human LPA1 receptor (Homo sapiens, UniProt Q92633) (assay: Beta-arrestin recruitment assay to determine IC50 values for human LPAR1). Conditions: Tango EDG2-bla U2OS cells, antagonist assay, LPA 18:1 500 nM final.
T1 construct: TEV protease site; Gal4-VP16 transcription factor; host or cells: Tango EDG2-bla U2OS cells
T1 sequence (Q92633 whole entry, the tested form may be a part): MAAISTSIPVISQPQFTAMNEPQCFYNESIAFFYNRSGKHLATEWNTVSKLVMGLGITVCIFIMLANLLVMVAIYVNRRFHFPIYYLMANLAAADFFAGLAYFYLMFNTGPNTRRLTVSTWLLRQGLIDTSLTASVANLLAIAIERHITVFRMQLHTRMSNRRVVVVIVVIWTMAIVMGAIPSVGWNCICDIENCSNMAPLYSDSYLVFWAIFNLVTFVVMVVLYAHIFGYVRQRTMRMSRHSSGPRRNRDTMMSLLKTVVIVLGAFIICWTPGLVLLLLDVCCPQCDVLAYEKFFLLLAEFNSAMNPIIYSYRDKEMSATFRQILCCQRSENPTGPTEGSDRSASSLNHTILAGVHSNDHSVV
Format: cell-based
How it was run: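 Tango EDG2-bla U2OS cells were preincubated 30 min at 37 °C with compound. They were then stimulated with 500 nM (final) LPA 18:1 for 16 h. β-Lactamase reporter read by LiveBLAzer FRET substrate (2 h) as the 460/530 nm ratio; IC50 from 4-parameter logistic fit.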
In the case of `COc1cc(Cl)ncc1NC(=O)C1(c2c(F)cccc2C(C)C)CN(S(N)(=O)=O)C1` [Example 21-14, N-(6-chloro-4-methoxypyridin-3-yl)-3-(2-fluoro-6-isopropylphenyl)-1-sulfamoylazetidine-3-carboxamide], the IC50 is reported as 4 nM. Work on `COc1cc(Cl)ncc1NC(=O)C1(c2cc(F)ccc2C(C)C)CN(S(N)(=O)=O)C1` [Example 21-15, N-(6-chloro-4-methoxypyridin-3-yl)-3-(5-fluoro-2-isopropylphenyl)-1-sulfamoylazetidine-3-carboxamide] yielded an IC50 of 5 nM. Molecule `COc1cc(Cl)ncc1NC(=O)C1(c2ncccc2C(C)C)CN(S(N)(=O)=O)C1` [Example 21-16, N-(6-chloro-4-methoxypyridin-3-yl)-3-(3-isopropylpyridin-2-yl)-1-sulfamoylazetidine-3-carboxamide] has an IC50 of 12 nM. `COc1cc(Cl)ncc1NC(=O)C1(c2nc(F)ccc2C(C)C)CN(S(N)(=O)=O)C1` [Example 21-17, N-(6-chloro-4-methoxypyridin-3-yl)-3-(6-fluoro-3-isopropylpyridin-2-yl)-1-sulfamoylazetidine-3-carboxamide] showed an IC50 of 16 nM. Molecule `COc1ccncc1NC(=O)C1(c2ccccc2C(C)C)CN(S(N)(=O)=O)C1` [Example 21-18, 3-(2-isopropylphenyl)-N-(4-methoxypyridin-3-yl)-1-sulfamoylazetidine-3-carboxamide] has an IC50 of 1560 nM. With `COc1cc(Cl)ncc1NC(=O)C1(c2ccccc2C2CCCC2)CN(S(N)(=O)=O)C1` [Example 21-19, N-(6-chloro-4-methoxypyridin-3-yl)-3-(2-cyclopentylphenyl)-1-sulfamoylazetidine-3-carboxamide] the IC50 was 4 nM. `COCCNS(=O)(=O)N1CC(C(=O)Nc2cnc(Cl)cc2OC)(c2ccccc2C(C)C)C1` [Example 21-20, N-(6-chloro-4-methoxypyridin-3-yl)-3-(2-isopropylphenyl)-1-(N-(2-methoxyethyl)sulfamoyl)azetidine-3-carboxamide] was tested, and the IC50 was 73 nM. In the case of `COc1cc(Cl)ncc1NC(=O)C1(c2ccccc2C(C)C)CN(S(=O)(=O)NCCO)C1` [Example 21-21, N-(6-chloro-4-methoxypyridin-3-yl)-1-(N-(2-hydroxyethyl)sulfamoyl)-3-(2-isopropylphenyl)azetidine-3-carboxamide], the IC50 is reported as 56 nM. For `COc1cc(Cl)ncc1NC(=O)C1(c2ccccc2C(C)C)CN(C(N)=O)C1` [Example 22-1, N3-(6-chloro-4-methoxypyridin-3-yl)-3-(2-isopropylphenyl)azetidine-1,3-dicarboxamide], the IC50 was 22 nM. `CNC(=O)N1CC(C(=O)Nc2cnc(Cl)cc2OC)(c2ccccc2C(C)C)C1` [Example 22-2, N3-(6-chloro-4-methoxypyridin-3-yl)-3-(2-isopropylphenyl)-N1-methylazetidine-1,3-dicarboxamide] showed an IC50 of 12 nM. Work on `CCNC(=O)N1CC(C(=O)Nc2cnc(Cl)cc2OC)(c2ccccc2C(C)C)C1` [Example 22-3, N3-(6-chloro-4-methoxypyridin-3-yl)-N1-ethyl-3-(2-isopropylphenyl)azetidine-1,3-dicarboxamide] yielded an IC50 of 6 nM. `COc1cc(Cl)ncc1NC(=O)C1(c2ccccc2C(C)C)CN(C(=O)NC(C)C)C1` [Example 22-4, N3-(6-chloro-4-methoxypyridin-3-yl)-N1-isopropyl-3-(2-isopropylphenyl)azetidine-1,3-dicarboxamide] showed an IC50 of 9 nM. Work on `COc1cc(Cl)ncc1NC(=O)C1(c2ccccc2C(C)C)CN(C(=O)NC2CC2)C1` [Example 22-5, N3-(6-chloro-4-methoxypyridin-3-yl)-N1-cyclopropyl-3-(2-isopropylphenyl)azetidine-1,3-dicarboxamide] yielded an IC50 of 5 nM. `COC[C@H](C)Oc1cc(Cl)ncc1NC(=O)C1(c2ccccc2C(C)C)CN(C(=O)NC2CC2)C1` [Example 22-6, (S)-N3-(6-chloro-4-((1-methoxypropan-2-yl)oxy)pyridin-3-yl)-N1-cyclopropyl-3-(2-isopropylphenyl)azetidine-1,3-dicarboxamide] gave an IC50 of 3 nM. With `COc1cc(Cl)ncc1NC(=O)C1(c2ncccc2C(C)C)CN(C(=O)NC2CC2)C1` [Example 22-7, N3-(6-chloro-4-methoxypyridin-3-yl)-N1-cyclopropyl-3-(3-isopropylpyridin-2-yl)azetidine-1,3-dicarboxamide] the IC50 was 18 nM. `C=C(C)C(=O)OCCNC(=O)N1CC(C(=O)Nc2cnc(Cl)cc2OC)(c2ccccc2C(C)C)C1` [Example 22-8, 2-(3-((6-chloro-4-methoxypyridin-3-yl)carbamoyl)-3-(2-isopropylphenyl)azetidine-1-carboxamido)ethyl methacrylate] showed an IC50 of 12 nM. Molecule `COCCNC(=O)N1CC(C(=O)Nc2cnc(Cl)cc2OC)(c2ccccc2C(C)C)C1` [Example 22-10, N3-(6-chloro-4-methoxypyridin-3-yl)-3-(2-isopropylphenyl)-N1-(2-methoxyethyl)azetidine-1,3-dicarboxamide] has an IC50 of 15 nM. Molecule `CCOC(=O)CNC(=O)N1CC(C(=O)Nc2cnc(Cl)cc2OC)(c2ccccc2C(C)C)C1` [Example 22-11, ethyl (3-((6-chloro-4-methoxypyridin-3-yl)carbamoyl)-3-(2-isopropylphenyl)azetidine-1-carbonyl)glycinate] has an IC50 of 18 nM. Molecule `COc1cc(Cl)ncc1NC(=O)C1(c2ccccc2C(C)C)CN(C(=O)NCC(=O)O)C1` [Example 22-12, (3-((6-chloro-4-methoxypyridin-3-yl)carbamoyl)-3-(2-isopropylphenyl)azetidine-1-carbonyl)glycine] has an IC50 of 431 nM. Molecule `CCOC(=O)CCNC(=O)N1CC(C(=O)Nc2cnc(Cl)cc2OC)(c2ccccc2C(C)C)C1` [Example 22-13, ethyl 3-(3-((6-chloro-4-methoxypyridin-3-yl)carbamoyl)-3-(2-isopropylphenyl)azetidine-1-carboxamido)propanoate] has an IC50 of 7 nM. `COc1cc(Cl)ncc1NC(=O)C1(c2ccccc2C(C)C)CN(C(=O)NCCC(=O)O)C1` [Example 22-14, 3-(3-((6-chloro-4-methoxypyridin-3-yl)carbamoyl)-3-(2-isopropylphenyl)azetidine-1-carboxamido)propanoic acid] showed an IC50 of 204 nM. `COc1cc(Cl)ncc1NC(=O)C1(c2ccccc2C(C)C)CN(C(=O)N(C)C)C1` [Example 22-15, N^3-(6-chloro-4-methoxypyridin-3-yl)-3-(2-isopropylphenyl)-N1,N1-dimethylazetidine-1,3-dicarboxamide] was tested, and the IC50 was 74 nM. `COc1cc(Cl)ncc1NC(=O)C1(c2ccccc2C(C)C)CN(C(=O)N2CCOCC2)C1` [Example 22-16, N-(6-chloro-4-methoxypyridin-3-yl)-3-(2-isopropylphenyl)-1-(morpholine-4-carbonyl)azetidine-3-carboxamide] gave an IC50 of 201 nM. In the case of `COC(=O)N1CC(C(=O)Nc2cnc(Cl)cc2OC)(c2ccccc2C(C)C)C1` [Example 23-1, Methyl 3-((6-chloro-4-methoxypyridin-3-yl)carbamoyl)-3-(2-isopropylphenyl)azetidine-1-carboxylate], the IC50 is reported as 6 nM. For `COCCOC(=O)N1CC(C(=O)Nc2cnc(Cl)cc2OC)(c2ccccc2C(C)C)C1` [Example 23-2, 2-Methoxyethyl 3-((6-chloro-4-methoxypyridin-3-yl)carbamoyl)-3-(2-isopropylphenyl)azetidine-1-carboxylate], the IC50 was 69 nM. With `COc1cc(Cl)ncc1NC(=O)C1(c2ccccc2C(C)C)CN(c2ccncc2C)C1` [Example 24-1, N-(6-chloro-4-methoxypyridin-3-yl)-3-(2-isopropylphenyl)-1-(3-methylpyridin-4-yl)azetidine-3-carboxamide] the IC50 was 2 nM. For `COc1cc(Cl)ncc1NC(=O)C1(c2ccccc2C(C)C)CN(c2ccncc2F)C1` [Example 24-2, N-(6-chloro-4-methoxypyridin-3-yl)-1-(3-fluoropyridin-4-yl)-3-(2-isopropylphenyl)azetidine-3-carboxamide], the IC50 was 2 nM. `COc1cc(Cl)ncc1NC(=O)C1(c2ccccc2C(C)C)CN(c2ccnc(C)c2F)C1` [Example 24-3, N-(6-chloro-4-methoxypyridin-3-yl)-1-(3-fluoro-2-methylpyridin-4-yl)-3-(2-isopropylphenyl)azetidine-3-carboxamide] gave an IC50 of 2 nM. Molecule `COc1cc(Cl)ncc1NC(=O)C1(c2ccccc2C(C)C)CN(c2cc(C)ncc2F)C1` [Example 24-4, N-(6-chloro-4-methoxypyridin-3-yl)-1-(5-fluoro-2-methylpyridin-4-yl)-3-(2-isopropylphenyl)azetidine-3-carboxamide] has an IC50 of 2 nM. For `COc1cc(Cl)ncc1NC(=O)C1(c2ccccc2C(C)C)CN(c2ccnc(C)c2)C1` [Example 24-5, N-(6-chloro-4-methoxypyridin-3-yl)-3-(2-isopropylphenyl)-1-(2-methylpyridin-4-yl)azetidine-3-carboxamide], the IC50 was 3 nM. For `COc1cc(Cl)ncc1NC(=O)C1(c2ccccc2C(C)C)CN(c2cc(C)nc(C)c2)C1` [Example 24-6, N-(6-chloro-4-methoxypyridin-3-yl)-1-(2,6-dimethylpyridin-4-yl)-3-(2-isopropylphenyl)azetidine-3-carboxamide], the IC50 was 91 nM. In the case of `COc1cc(Cl)ncc1NC(=O)C1(c2ccccc2C(C)C)CN(c2cc(F)ccn2)C1` [Example 24-7, N-(6-chloro-4-methoxypyridin-3-yl)-1-(4-fluoropyridin-2-yl)-3-(2-isopropylphenyl)azetidine-3-carboxamide], the IC50 is reported as 1 nM. For `COc1cc(Cl)ncc1NC(=O)C1(c2ccccc2C(C)C)CN(c2ncc(C#N)cn2)C1` [Example 24-8, N-(6-chloro-4-methoxypyridin-3-yl)-1-(5-cyanopyrimidin-2-yl)-3-(2-isopropylphenyl)azetidine-3-carboxamide], the IC50 was 1 nM. For `COc1cc(Cl)ncc1NC(=O)C1(c2ccccc2C(C)C)CN(c2ncc(F)cn2)C1` [Example 24-9, N-(6-chloro-4-methoxypyridin-3-yl)-1-(5-fluoropyrimidin-2-yl)-3-(2-isopropylphenyl)azetidine-3-carboxamide], the IC50 was 8 nM.
